Assay: Onset and duration of effect of methylcobalamin administration (subject reports, QEEG)
Type: in vivo, human
Conditions: varies between persons
Method: In a person responsive to methylcobalamin, the effects of methylcobalmin administered nasally may begin to occur within minutes of administration. […] In various experiments, subjects reported feeling better in minutes and sometimes seconds. Thus, improvements can occur within the first hour of administration.
Although the effects of a typical administration can last about 24 hours, every person is different. Thus, some people can become depleted of available methylcobalamin in hours or less, while others can feel the benefits for days. The dosage and frequency of methylcobalamin administration can decrease over time, particularly with changing lifestyle or eating habits. For example, reducing intake of milk and wheat products, complex carbohydrates and starches, and improvements to intestinal flora may reduce the need for methylcobalamin.

Structure (SMILES): C/C1=C2/[N-][C@H]([C@H](CC(N)=O)[C@@]2(C)CCC(=O)NC[C@@H](C)OP(=O)([O-])O[C@H]2[C@@H](O)[C@@H](n3cnc4cc(C)c(C)cc43)O[C@@H]2CO)[C@]2(C)N=C(/C(C)=C3N=C(/C=C4N=C1[C@@H](CCC(N)=O)C\4(C)C)[C@@H](CCC(N)=O)[C@]\3(C)CC(N)=O)[C@@H](CCC(N)=O)[C@]2(C)CC(N)=O.[CH3-].[Co+3] [methylcobalamin]
- duration of effects of a typical administration: about 24 hours
